Measurements reported in paper PMC6874530, “Structural analysis identifies an escape route from the adverse lipogenic effects of liver X receptor ligands” (Communications Biology, 2019).
Several values for one entry are separate records, joined by “and”; a condition that tells them apart may be missing. Equal values may be shown once. Read-outs that look alike come from different tables or passages of the source.

Tests used:
[1] = molecular target: T1, LXRα (Homo sapiens, UniProt Q13133); assay: Gal4 one hybrid reporter gene (transactivation) assay in U2OS cells, LXRα; assay type: cell-based; details: value (SD, n)
T1 construct: expression vectors pSG5-Gal4-LXRα LBD or pSG5-Gal4-LXRβ LBD; expressed in transfected cells; host or cells: U2OS osteosarcoma cells
T1 sequence (Q13133 209-447 limits assumed): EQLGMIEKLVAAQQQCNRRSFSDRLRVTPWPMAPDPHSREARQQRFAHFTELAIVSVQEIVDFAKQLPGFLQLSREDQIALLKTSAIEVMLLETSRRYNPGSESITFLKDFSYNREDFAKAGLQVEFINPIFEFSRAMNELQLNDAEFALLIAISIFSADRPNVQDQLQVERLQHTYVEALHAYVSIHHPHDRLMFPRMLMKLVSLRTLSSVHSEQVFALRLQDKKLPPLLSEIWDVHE
Method: Transactivation assays were performed in U2OS osteosarcoma cells (ATCC, USA). […] Ligands were added at ten different concentrations 2 h post transfection and the luciferase activity was measured after 40 h.

[2] = system: Abca1 mRNA in intestine; assay: intestinal Abca1 mRNA induction in C57BL/6 mice (Emax model); assay type: in vivo, mouse; details: Mus musculus
Method: All procedures involving animals were conducted in accordance with accepted standards of good animal practice and approved by the respective local animal ethics committees (Gothenburg region Local Ethics Review Committee on Animal experiments and University of Virginia Animal Care and Use Committee). Male C57BL/6JOlaHsd mice were retrieved from Harlan Laboratories (Horst, The Netherlands) around 7 weeks of age. In the studies with BMS-852907, male 8-week C57BL/6J mice (Jackson Laboratories) were used. Mice were given ad libitum access to water and standard rodent chow during the studies.
Solid compounds were solubilized in PEG400/Ethanol/Solutol/Water solution (36.3/9.1/4.6/50%). Compounds were given daily by oral gavage, 5 ml kg^−1, at doses ranging from 0.1 to 100 μmol kg^−1 of body weight for 4 days. Animals were terminated 3 h after the last dose.
(§1) At termination, the whole-blood volume was drawn from isoflurane-anesthetized mice via an incision in the carotid artery into EDTA blood tubes (S-Monovette®, EDTA KE/1.3 mL, Sarstedt, Nümbrecht, Germany or BD Microtainers®, Benton, Dickinson and Company, Franklin Lakes, New Jersey, USA). Blood samples were placed on ice and centrifuged within an hour (15 min, 2500 × g, 4 °C or 5 min, 16000 × g, 4 °C). The plasma was then dispensed in separate tubes and kept at −80 °C for later analysis of compound concentration and TG levels. For the analysis of intestinal Abca1 transcript levels, a 3–5-mm long segment of the duodenum was excised and cleared from any gut contents. Tissues were instantly snap frozen in liquid nitrogen and stored at −80 °C.
Snap-frozen intestinal tissues were quickly disrupted in QIAzol® (Qiagen, Hilden, Germany) or PureZOL™ (Bio-Rad Laboratories, Hercules, California, USA) by using a bead tissue homogenizer. Lysates were mixed with chloroform and centrifuged at 6000 × g for 15 min at 4 °C. Total RNA was purified from the upper aqueous phase on the ABI PRISM™ 6100 Nucleic Acid PrepStation (Applied Biosystems, Foster City, USA) or by using the RNeasy kit® (QIAGEN Sciences Inc., Germantown, Maryland, USA) including on-column DNase treatment by using the respective manufacturer’s protocol and reagents. Concentration of total RNA was determined on a NanoDrop™ ND-100 Spectrophotometer (Saveen Werner, Lögstrup, Sweden). The RNA templates were transferred to cDNA by reverse transcription by using the High-Capacity cDNA Reverse Transcription Kit (Applied Biosystems, Foster City, USA) according to the manufacturer’s protocol. Mouse ATP-binding cassette subfamily A member 1 (Abca1) was analyzed by using the forward primer 5′-[…]-3′, reverse primer 5′-[…]-3′, and the dual-labeled probe 5′-6FAM-[…]-TAMRA-3′. Mouse ribosomal protein large P0 (Rplp0, 36b4) was analyzed by using the forward primer 5′-[…]-3′, reverse primer 5′-[…]-3′, and the FAM-labeled probe 5′-[…]-TAMRA-3′. In the study with BMS-852907, RT-qPCR reactions were carried out in separate triplicate wells for Abca1 and Rplp0, respectively, by using 20 ng of cDNA template, 385 nM of the above-mentioned primers, and iQ™ SYBR Green Supermix (Bio-Rad, Hercules, California, USA) on a Bio-Rad MyiQ instrument (Bio-Rad, Hercules, California, USA). In the other studies, 400 nM Abca1 forward and reverse primers, 200 nM Abca1 probe, 200 nM Rplp0 forward and reverse primers, and 100 nM Rplp0 probe were mixed with 15 ng of cDNA template and TaqMan™ Gene Expression Master Mix (Applied Biosystems, Foster City, USA). The RT-qPCR reactions were performed on a 7500 Real-time PCR system (Applied Biosystems, Foster City, USA). Cycle threshold values (Ct) were retrieved from the instrument software. Relative changes in mRNA expression were calculated by using the comparative cycle method (2^−ΔΔCt). […]

[3] = system: plasma triglycerides; assay: plasma TG induction in C57BL/6 mice vs plasma compound concentration (log-linear model); assay type: in vivo, mouse
Method: Male C57BL/6JOlaHsd mice were retrieved from Harlan Laboratories (Horst, The Netherlands) around 7 weeks of age. […] Mice were given ad libitum access to water and standard rodent chow during the studies.
Compounds were given daily by oral gavage, 5 ml kg^−1, at doses ranging from 0.1 to 100 μmol kg^−1 of body weight for 4 days. Animals were terminated 3 h after the last dose.
as §1
Plasma triglyceride levels were analyzed by using the Triglycerides/Glycerol Blanked reagent kit (Roche Diagnostics GMBH, Mannheim, Germany). Samples were measured on an ABX Pentra 400 instrument (Horiba Medical, Irvine, California, USA) or Cobas Mira plus instrument (Roche Diagnostics Corporation, Indianapolis, USA). […] Absorbance was measured by using a Tecan Infinite M200 plate reader (Tecan Austria GmbH, Salzburg, Austria).
About 25 µL of plasma was precipitated with 150 µL of cold acetonitrile containing 0.2% formic acid. […] Sample analysis was performed by using a reversed-phase high-pressure liquid chromatography system coupled to a Quattro Ultima triple-quadrupole mass spectrometer (Waters, UK). A rapid 2-min 4–90% (vol/vol) acetonitrile (containing 0.2% formic acid) gradient was used for chromatographic separation.
To rank the compounds, the drug concentration (C2) needed to generate a twofold increase in plasma TG was estimated by rearranging Eq. (2):3 C2=exp^2fold−BL−1/m^1/γ

[4] = molecular target: T2, LXRβ LBD (Homo sapiens, UniProt P55055); assay: biochemical; details: Receptor-binding affinity pKi LXRβ, value (SD, n independent experiments)
T2 sequence (P55055 215-460 limits assumed): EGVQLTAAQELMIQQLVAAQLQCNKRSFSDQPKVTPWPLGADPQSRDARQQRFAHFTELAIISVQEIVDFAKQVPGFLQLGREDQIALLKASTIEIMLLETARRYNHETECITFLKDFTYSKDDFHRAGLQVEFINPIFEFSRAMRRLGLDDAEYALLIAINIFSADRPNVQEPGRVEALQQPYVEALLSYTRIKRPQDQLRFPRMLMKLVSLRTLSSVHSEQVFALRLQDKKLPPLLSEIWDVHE
Description: The compounds were run in triplicate (binding assay) or in quadruplicate (transactivation assay). Standard deviations are indicated for individual experiments run more than once.

O=C(O)Cc1cccc(OCCCN(Cc2cccc(C(F)(F)F)c2Cl)CC(c2ccccc2)c2ccccc2)c1 [GW3965, reference compound]
EC50 ([1]; U2OS cells, Gal4-LXRα LBD, read-out: LXRα transactivation pEC50 (converted)): 1100 nM
Emax ([1]; U2OS, 40 h, maximal activation compared with a reference full agonist, read-out: LXRα transactivation Agonist efficacy, %): 93.5%
ED50 ([2]; po, read-out: Abca1 mRNA induction in intestine Attributed class): ≤ 11.3 µmol/kg
ED50 ([2]; oral gavage daily for 4 days, C57BL/6 mice, (% RSE), read-out: Abca1 mRNA induction in intestine ED50): 0.969 µmol/kg
TG class [3]: non-lipogenic
TG induction in plasma m (scaling factor) ([3]; (% RSE)): 0.244 (18)
TG induction in plasma Attributed class ([3]; mouse, in vivo): Non-lipogenic
TG induction in plasma C2, drug concentration corresponding to a twofold increase in TG levels ([3]; plasma concentration, (% RSE)): 40.2 μM and 40.2 (33) μM
Ki [4]: 24 nM
